The values below come from patent US11242337B2, “Compounds useful for treating gastrointestinal tract disorders” (Ardelyx, Inc., priority 2017, dated 2022).

What is called IC50 is the concentration that gives 50% inhibition. Low readings indicate higher potency, high ones lower potency.

Experiment [1] concerns the target T1, NHE3 (Homo sapiens, UniProt P48764).
T1 construct: expressed in transfected cells
T1 sequence (P48764 26-834): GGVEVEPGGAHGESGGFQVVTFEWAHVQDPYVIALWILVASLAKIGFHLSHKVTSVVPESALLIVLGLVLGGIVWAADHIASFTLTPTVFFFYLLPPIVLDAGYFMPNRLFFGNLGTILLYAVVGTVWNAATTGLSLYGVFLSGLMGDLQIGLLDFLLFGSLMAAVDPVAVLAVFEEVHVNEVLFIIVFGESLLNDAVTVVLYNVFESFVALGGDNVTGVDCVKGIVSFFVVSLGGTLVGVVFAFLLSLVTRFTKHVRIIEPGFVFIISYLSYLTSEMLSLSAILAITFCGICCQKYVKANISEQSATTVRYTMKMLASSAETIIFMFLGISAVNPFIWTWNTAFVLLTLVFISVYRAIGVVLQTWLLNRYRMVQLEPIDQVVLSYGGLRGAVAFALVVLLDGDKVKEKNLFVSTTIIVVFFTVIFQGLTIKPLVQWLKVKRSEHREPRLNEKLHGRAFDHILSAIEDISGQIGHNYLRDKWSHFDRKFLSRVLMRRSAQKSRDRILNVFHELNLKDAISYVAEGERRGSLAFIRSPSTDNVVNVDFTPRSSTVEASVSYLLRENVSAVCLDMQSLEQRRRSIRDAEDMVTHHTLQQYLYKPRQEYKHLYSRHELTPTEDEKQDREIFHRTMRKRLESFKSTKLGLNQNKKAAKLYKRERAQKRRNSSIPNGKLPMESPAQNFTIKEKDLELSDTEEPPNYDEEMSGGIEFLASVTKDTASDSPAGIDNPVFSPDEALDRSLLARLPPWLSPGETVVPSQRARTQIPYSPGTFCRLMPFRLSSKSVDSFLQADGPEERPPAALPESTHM
T1 sequence (Q99653 2-195 partner limits assumed): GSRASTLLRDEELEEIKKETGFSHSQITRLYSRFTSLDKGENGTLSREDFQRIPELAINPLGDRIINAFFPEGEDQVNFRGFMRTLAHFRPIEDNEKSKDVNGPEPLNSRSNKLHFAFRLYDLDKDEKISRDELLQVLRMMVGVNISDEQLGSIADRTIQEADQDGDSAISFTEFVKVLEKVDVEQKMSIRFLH
The experiment can be described thus: Cell-based assay of NHE-3 activity (pre-incubation inhibition), human. Conditions: human Preincubation. In outline:
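PS120 fibroblasts stably expressing human NHE3 and NHERF2, loaded 30 min at 37 °C with 5 μM BCECF-AM in NH4Cl buffer, then acidified 10 min at room temperature in Na+-free buffer with 0–30 μM compound. Initial rate of BCECF fluorescence ratio change (FLIPR) per minute taken as Na+/H+ activity.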

Experiment [2] deals with T1, NHE3. The experiment can be described thus: Cell-based assay of NHE-3 activity (persistent inhibition), human. Conditions: human Persistence, 60 min incubation then washout. In short, it runs like this: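 PS120 fibroblasts expressing human NHE3 with NHERF2 exposed to 0-30 μM compound for 60 min at RT, then washed out; cells acid-loaded by NH4Cl prepulse with BCECF-AM and Na+-free buffer. Na+-driven pH recovery started 10 min post-washout; initial rate of BCECF ratio change (FLIPR) taken as activity.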

For `Cc1cc(Cl)cc2c1C[C@H](N1CCNCC1)[C@H]2Oc1ccc(S(=O)(=O)NCCOCCOCCNC(=O)NCCCCNC(=O)NCCOCCOCCNS(=O)(=O)c2ccc(O[C@H]3c4cc(Cl)cc(C)c4C[C@@H]3N3CCNCC3)cc2)cc1` [Example 34, 3-[2-(2-[2-[(4-[[(1S,2S)-6-Chloro-4-methyl-2-(piperazin-1-yl)-2,3-dihydro-1H-inden-1-yl]oxy]benzene)sulfonamido]ethoxy]ethoxy)ethyl]-1-[4-([[2-(2-[2-[(4-[[(1S,2S)-6-chloro-4-methyl-2-(piperazin-1-yl)-2,3-dihydro-1H-inden-1-yl]oxy]benzene)sulfonamido]ethoxy]ethyl)ethyl]carbamoyl]amino)butyl]urea; bis(trifluoroacetic acid)], the “% inhibition” value on NHE3 [1] and on NHE3 [2] was “C (>70%)” in each case.
`Cc1cc(Cl)cc2c1C[C@H](N(C)C)[C@H]2Oc1ccc(S(=O)(=O)NCCOCCOCCNC(=O)NCCCCNC(=O)NCCOCCOCCNS(=O)(=O)c2ccc(O[C@H]3c4cc(Cl)cc(C)c4C[C@@H]3N(C)C)c(F)c2)cc1F` [Example 24, 3-[2-(2-[2-[(4-[[(1S,2S)-6-Chloro-2-(dimethylamino)-4-methyl-2,3-dihydro-1H-inden-1-yl]oxy]-3-fluorobenzene)sulfonamido]ethoxy]ethoxy)ethyl]-1-[4-([[2-(2-[2-[(4-[[(1S,2S)-6-chloro-2-(dimethylamino)-4-methyl-2,3-dihydro-1H-inden-1-yl]oxy]-3-fluorobenzene)sulfonamido]ethoxy]ethoxy)ethyl]carbamoyl]amino)butyl]urea]: the “% inhibition” value on NHE3 [1] and on NHE3 [2] was “C (>70%)” in each case.
In the case of `O=C(NCCCCNC(=O)NCCOCCN1CC[C@@H](NS(=O)(=O)c2ccc(O[C@H]3c4cc(Cl)cc(Cl)c4C[C@@H]3N3CCNCC3)c(F)c2)C1)NCCOCCN1CC[C@@H](NS(=O)(=O)c2ccc(O[C@H]3c4cc(Cl)cc(Cl)c4C[C@@H]3N3CCNCC3)c(F)c2)C1` [Example 105, 4-([(1S,2S)-4,6-Dichloro-2-(piperazin-1-yl)-2,3-dihydro-1H-inden-1-yl]oxy)-N—[(R)-1-(20-[(R)-3-([4-([(1S2S)-4,6-dichloro-2-(piperazin-1-yl)-2,3-dihydro-1H-inden-1-yl]oxy)-3-fluorophenyl]sulfonamido)pyrrolidin-1-yl]-7,14-dioxo-3,18-dioxa-6,8,13,15-tetraazaicosyl)pyrrolidin-3-yl]-3-fluorobenzenesulfonamide; tetra(trifluoroacetate)], the “% inhibition” value at NHE3 [1] and at NHE3 [2] was “C (>70%)” each time. In addition, the IC50 on NHE3 [1] (0-30 μM test compound) and against NHE3 [2] was under 0.1 µM each time.
For `Cc1cc(S(=O)(=O)NCCOCCOCCNC(=O)NCCCCNC(=O)NCCOCCOCCNS(=O)(=O)c2ccc(O[C@H]3c4cc(Cl)cc(C)c4C[C@@H]3N3CCC[C@@H](N(C)C)C3)c(C)c2)ccc1O[C@H]1c2cc(Cl)cc(C)c2C[C@@H]1N1CCC[C@@H](N(C)C)C1` [Example 29], the “% inhibition” value at NHE3 [1] and at NHE3 [2] was “C (>70%)” throughout. Further, the pIC50 entry at NHE3 [1] (0-30 μM test compound) and against NHE3 [2] was “C (NHE3 pIC50 > 7)” throughout.
Consider `O=C(NCCCCNC(=O)NCCOCCOCCNS(=O)(=O)c1ccc(O[C@H]2c3cc(Cl)cc(Cl)c3C[C@@H]2N2CCNCC2)c(F)c1)NCCOCCOCCNS(=O)(=O)c1ccc(O[C@H]2c3cc(Cl)cc(Cl)c3C[C@@H]2N2CCNCC2)c(F)c1` [Example 33, 3-[2-(2-[2-[(4-[[(1S,2S)-4,6-Dichloro-2-(piperazin-1-yl)-2,3-dihydro-1H-inden-1-yl]oxy]-3-fluorobenzene)sulfonamido]ethoxy]ethoxy)ethyl]-1-[4-[[(2-(2-[2-[(4-[[(1S,2S)-4,6-dichloro-2-(piperazin-1-yl)-2,3-dihydro-1H-inden-1-y]oxy]-3-fluorobenzene)sulfonamido]ethoxy]ethoxy)ethyl]carbamoyl]amino)butyl]urea; bis(trifluoroacetic acid)], for which the “% inhibition” value on NHE3 [1] and at NHE3 [2] was “C (>70%)” each time.
As to `Cc1cc(S(=O)(=O)NCCOCCOCCNC(=O)NCCCCNC(=O)NCCOCCOCCNS(=O)(=O)c2ccc(O[C@H]3c4cc(Cl)cc(Cl)c4C[C@@H]3N3CCNCC3)c(C)c2)ccc1O[C@H]1c2cc(Cl)cc(Cl)c2C[C@@H]1N1CCNCC1` [Example 32, 3-[2-(2-[2-[(4-[[(1S,2S)-4,6-Dichloro-2-(piperazin-1-yl)-2,3-dihydro-1H-inden-1-yl]oxy]-3-methylbenzene)sulfonamido]ethoxy]ethoxy)ethyl]-1-[4-([[2-(2-[2-[(4-[[(1S,2S)-4,6-dichloro-2-(piperazin-1-yl)-2,3-dihydro-1H-inden-1-yl]oxy]-3-methylbenzene)sulfonamido]ethoxy]ethoxy)ethyl]carbamoyl]amino)butyl]urea; bis(trifluoroacetic acid)], the “% inhibition” value at NHE3 [1] and at NHE3 [2] was “C (>70%)” in each case. Further, the pIC50 result against NHE3 [1] (0-30 μM test compound) and against NHE3 [2] was “C (NHE3 pIC50 > 7)” in each case.
With `CN(C)[C@H]1CCCN([C@H]2Cc3c(C#N)cc(Cl)cc3[C@@H]2Oc2ccc(S(=O)(=O)NCCOCCOCCNC(=O)NCCCCNC(=O)NCCOCCOCCNS(=O)(=O)c3ccc(O[C@H]4c5cc(Cl)cc(C#N)c5C[C@@H]4N4CCC[C@H](N(C)C)C4)cc3)cc2)C1` [Example 122, 4-([(1S,2S)-6-Chloro-4-cyano-2-[(S)-3-(dimethylamino)piperidin-1-yl]-2,3-dihydro-1H-inden-1-yl]oxy)-N-[26-([4-([(1S,2S)-6-chloro-4-cyano-2-[(S)-3-(dimethylamino)piperidin-1-yl]-2,3-dihydro-1H-inden-1-yl]oxy)phenyl]sulfonamido)-10,17-dioxo-3,6,21,24-tetraoxa-9,11,16,18-tetraazahexacosyl]benzenesulfonamide], the “% inhibition” value at NHE3 [1] and on NHE3 [2] was “C (>70%)” in each case. For the same molecule, the pIC50 result against NHE3 [1] (0-30 μM test compound) and at NHE3 [2] was “C (NHE3 pIC50 > 7)” each time.
As for `N#Cc1cc(Cl)cc2c1C[C@H](N1CCNCC1)[C@H]2Oc1ccc(S(=O)(=O)N[C@H]2CCN(CCOCCNC(=O)NCCCCNC(=O)NCCOCCN3CC[C@H](NS(=O)(=O)c4ccc(O[C@H]5c6cc(Cl)cc(C#N)c6C[C@@H]5N5CCNCC5)c(F)c4)C3)C2)cc1F` [Example 110, 4-([(1S,2S)-6-Chloro-4-cyano-2-(piperazin-1-yl)-2,3-dihydro-1H-inden-1-yl]oxy)-N—[(S)-1-(20-[(S)-3-[(4-([(1S,2S)-6-chloro-4-cyano-2-(piperazin-1-yl)-2,3-dihydro-1H-inden-1-yl]oxy)-3-fluorophenyl)sulfonamide)pyrrolidin-1-yl]-7,14-dioxo-3,18-dioxa-6,8,13,15-tetraazaicosyl)pyrrolidin-3-yl]-3-fluorobenzenesulfonamide; tetra(trifluoroacetate)], the “% inhibition” value on NHE3 [1] and on NHE3 [2] was “C (>70%)” throughout. Besides, the pIC50 result against NHE3 [1] (0-30 μM test compound) and against NHE3 [2] was “C (NHE3 pIC50 > 7)” throughout.
In the case of `Cc1cc(Cl)cc2c1C[C@H](N1CCNCC1)[C@H]2Oc1ccc(S(=O)(=O)NCCOCCOCCNC(=O)NCCCCNC(=O)NCCOCCOCCNS(=O)(=O)c2ccc(O[C@H]3c4cc(Cl)cc(C)c4C[C@@H]3N3CCNCC3)c(F)c2)cc1F` [Example 36, 3-[2-(2-[2-[(4-[[(1S,2S)-6-Chloro-4-methyl-2-(piperazin-1-yl)-2,3-dihydro-1H-inden-1-yl]oxy]-3-fluorobenzene)sulfonamido]ethoxy]ethoxy)ethyl]-1-[4-([[2-(2-[2-[(4-[[(1S,2S)-6-chloro-4-methyl-2-(piperazin-1-yl)-2,3-dihydro-1H-inden-1-yl]oxy]-3-fluorobenzene)sulfonamido]ethoxy]ethoxy)ethyl]carbamoyl]amino)butyl]urea; bis(trifluoroacetic acid)], the “% inhibition” value on NHE3 [1] and on NHE3 [2] was “C (>70%)” in each case. Also, the pIC50 result against NHE3 [1] (0-30 μM test compound) and against NHE3 [2] was “C (NHE3 pIC50 > 7)” in each case.
